Data reported in patent US8338568B2, “Chimeric PCSK9 proteins, cells comprising same, and assays using same” (Adaerata, Limited Partnership, priority 2006, dated 2012).

Legend:
[1] = system: LDLR; assay: Western blot of LDLR level in HEK293 cells co-transfected with LDLR and PCSK9 or PCSK9-TM-CT chimera; format: cell-based, human; settings: HEK293 cells co-transfected with LDLR; compared to wild type PCSK9; FIG. 4
Description: Note that NH4Cl allows the rescue from degradation of an intermediate immunoreactive ˜105 kDa form of LDLR that is likely found in endosomes. The pIRES lanes represent the empty vector pIRES-2 either alone or co-transfected with LDLR (as indicated at the bottom of the panel) as controls;
HEK293 cells were transiently transfected with different PCSK9-chimera constructions (Benjannet et al., 2004). […] Cells were either treated (+) or not (−) with 5 mM NH4Cl for 24 h. Note that NH4Cl allows the rescue from degradation of an intermediate immunoreactive ˜105 kDa form of LDLR that is likely found in endosomes. The pIRES lanes represent the empty vector pIRES-2 either alone or co-transfected with LDLR (as indicated at the bottom of the panel) as controls.

[2] = system: LDLR; assay: Western blot of endogenous LDLR level in HuH7 cells transiently transfected with PCSK9 constructs; format: cell-based, human; settings: compared to pIRES empty vector, FIG. 10
Description: Cells expressed either full length PCSK9 (FL-PCSK9), namely wild type sequence (WT), mutated R218S, RRRREL (SEQ ID NO: 5) or active site H226A; a truncated PCSK9 construct with the Cys/His rich domain (signal peptide fused to amino acid 455-692 of PCSK9 and ending with a V5 tag) (CHRD) or the empty vector control (pIRES-2). The levels of β-actin was used as control, as well as the level of PCSK9 intracellular proteins produced (detected by a V5-mAb);
Accordingly, the activity on the degradation of LDLR of wild type PCSK9, its R218S mutant, the RRRR218EL (SEQ ID NO: 5) variant, the active site mutant H226A and the Cys/His-rich domain of PCSK9 (aa 454-692 CHRD) was analyzed by Western blots in HuH7 cells (Benjannet et al., 2004) (FIG. 10).

[3] = system: ApoER2; assay: Western blot of overexpressed ApoER2 in cells co-transfected with PCSK9 constructs; format: cell-based; settings: for degradation of ApoER2: overexpressed receptor, transient co-transfection, FIGS. 13 and 14
Description: (§1) The triangle indicates the position in the gel of respectively ApoER2 (first panel), VLDLR (second panel) and LDLR (third panel). […] The PCSK9 Y38F is a mutant where the Tyr-sulfation of the prosegment is eliminated. The intracellular levels of PCSK9 (detected by a specific in-house polyclonal antibody made in rabbits against human PCSK9) are shown in the corresponding cell lysates in the lower panels;
The intracellular levels of PCSK9 (detected by a specific in house antibody against human PCSK9) are shown in the bottom panels;

[4] = system: VLDLR; assay: Western blot of overexpressed VLDLR in CHOK1 cells co-transfected with PCSK9 constructs; format: cell-based; settings: overexpressed receptor, transient co-transfection; FIG. 13
Description: as §1

[5] = system: LDLR; assay: Western blot of overexpressed LDLR in CHOK1 cells co-transfected with PCSK9 constructs; format: cell-based; settings: overexpressed receptor, transient co-transfection; FIG. 13
Description: as §1

[6] = target: T1, Furin (Homo sapiens, UniProt P09958); assay: Cleavability of PCSK9 mutants by Furin in HEK293 cells (pulse-labelling, V5 immunoprecipitation); format: cell-based; settings: for processing by co-expressed Furin: co-transfection with Furin, FIG. 8; for processing at Arg218 by endogenous Furin: 5 h pulse-labelling, FIG. 9
T1 construct: endogenous in cells; host or cells: HEK293
Description: Twenty four hours following the co-transfection of the PCSK9 natural mutants and each PC or with an empty vector control (pIRES). The cells were labeled with [^35S] [Met+Cys] for 5 h (P5h) and the cell lysates (Cells) and media analyzed as in FIG. 7. The stars point to lanes where either processing occurred (Furin and PC5A) or was inhibited by the presence of the mutation (R^218S with furin). Cleavage sites GTRFHS^218↓QA (SEQ ID NO: 17); GTRLHR^218↓QA (SEQ ID NO: 18);
[Met+Cys] as described in FIG. 7. The star emphasizes the effectiveness of the RRRR218EL (SEQ ID NO: […]) mutant to allow the complete processing of PCSK9 into the PCSK9-ΔN218 form by endogenous Furin. PCSK9 amino acid sequence in the vicinity of position 218 RFHR218QA (SEQ ID NO: 4) (WT); RFHR218EA (SEQ ID NO: 6) (Q219E); RFHR218EL (SEQ ID NO: 7) (QA219,220EL); RRRR218EL (SEQ ID NO: 5);
Was next tested the hypothesis that cleavage at Arg218 is performed by one or more basic amino acid PCs. Accordingly, wild type PCSK9 was co-expressed with all the convertases as well as with β-secretase BACE1 in HEK293 cells. Cells transiently transfected with vectors expressing hPCSK9-V5 and/or the different convertases (as indicated at the top of lanes) were pulse-labeled with ^35S-(Met+Cys) for 4 h and cell extracts (Cells) and media (Media) were immunoprecipitated with a V5 antibody and the precipitates were resolved by SDS/PAGE. […] The N-terminally truncated N2 product is thus referred to as PCSK9-ΔN218 (SEQ ID NO: 32) (PCSK9 lacking the first 218 amino acids; FIG. 5). […] The R218S mutation abrogates the Furin/PC5A cleavage at the sequence RFHR218.
Based on the crystal structure of Furin (Henrich et al., 2003) and the analysis of its many substrates (Seidah and Chretien, 1999), the best substrates of Furin would have the motif RX(R/K)R↓(E/D)L (SEQ ID NO: 115). This led the applicants to produce mutants of PCSK9 that should greatly enhance the ability of Furin to process this molecule. […] Notice the almost absence of prosegment co-immunoprecipitating with the PCSK9-ΔN218 form produced (FIG. 9), which would be predicted since such cleavage would remove the PCSK9 segment 153-218 (SEQ ID NO: 31), which contains the active site Asp^186.

[7] = system: basic aa-specific PCs; assay: Inhibition of PC processing of overexpressed human PCSK9 in HEK293 cells (pulse-labelling, V5 immunoprecipitation); format: cell-based; settings: co-expression with PCSK9 in HEK293 cells; FIG. 7
Description: Twenty four hours following the co-transfection of PCSK9 with a PC or with an empty vector control (the pIRES-2 vector from Invitrogen), the cells were labeled with [^35S] [Met+Cys] for 4 h (P4h). The cell lysates (Cells) and media were immunoprecipitated with a V5-mAb and the immunoprecipitates resolved by SDS-PAGE, as described (Seidah et al., 2003). sFurin represents the soluble form of furin lacking the transmembrane-cytosolic tail (Decroly et al., 1996). The stars point to lanes where either processing occurred (with Furin and PC5A) or was inhibited (α1-PDX). From now on, N2 is defined herein as the N-terminal 218 amino acid truncated PCSK9 product (PCSK9-ΔN218). The pIRES lanes represent the empty vector pIRES-2 either alone or co-transfected with PCSK9 (as indicated at the bottom of the panel) as controls;
Was next tested the hypothesis that cleavage at Arg218 is performed by one or more basic amino acid PCs. Accordingly, wild type PCSK9 was co-expressed with all the convertases as well as with β-secretase BACE1 in HEK293 cells. Cells transiently transfected with vectors expressing hPCSK9-V5 and/or the different convertases (as indicated at the top of lanes) were pulse-labeled with ^35S-(Met+Cys) for 4 h and cell extracts (Cells) and media (Media) were immunoprecipitated with a V5 antibody and the precipitates were resolved by SDS/PAGE. […]

[8] = system: VLDLR; assay: Transgenic mice overexpressing PCSK9-V5 in hepatocytes: VLDLR in skeletal muscle, circulating LDL-cholesterol; format: in vivo, mouse
Description: The transgenic protein was tagged with a V5 at its C-terminus to differentiate it from the endogenous one. […] This is the first evidence that circulating PCSK9 can enhance the degradation of VLDLR in vivo and at distant sites away from those of its synthesis.
Immunohistochemistry of VLDLR (red) in skeletal mouse muscles of control Pcsk9+/+, Pcsk9−/− (Pcsk9 knockout) and transgenic mice (Tg-hPcsk9-V5). The nuclei were stained using TO-PRO-3 (blue; invitrogen). scale: […]; and
A transgenic mice specifically overexpressing PCSK9 in hepatocytes was generated. The transgene was under the control of the ApoE promoter and enhancer regulation. […] The transgenic protein was tagged with a V5 at its c-terminus to differentiate it from the endogenous one. […] Immunofluorescence and Confocal Microscopy analyses of the skeletal mouse muscles were performed using a rabbit polyclonal Ab:VLDLR (a74; 1:200). Immunofluorescence analyses were performed with a Zeiss™ LSM-510 confocal microscope. Confocal immunofluorescence microscopy was performed with a Nikon Eclipse™ TE2000-U laser-scanning microscope with 408, 488, and 543-nm laser lines. Images were processed with Adobe Photoshop™ CS2, version 9.0 (Adobe Systems). […] This is the first evidence that circulating PCSK9 can enhance the degradation of VLDLR in vivo. The decrease level of VLDLR in the transgenic mice overexpressing PCSK9 in the liver was also confirm by immunodetection of PCSK9 in extracts of skeletal muscle (see FIG. 21).

T1 sequence (P09958 108-794): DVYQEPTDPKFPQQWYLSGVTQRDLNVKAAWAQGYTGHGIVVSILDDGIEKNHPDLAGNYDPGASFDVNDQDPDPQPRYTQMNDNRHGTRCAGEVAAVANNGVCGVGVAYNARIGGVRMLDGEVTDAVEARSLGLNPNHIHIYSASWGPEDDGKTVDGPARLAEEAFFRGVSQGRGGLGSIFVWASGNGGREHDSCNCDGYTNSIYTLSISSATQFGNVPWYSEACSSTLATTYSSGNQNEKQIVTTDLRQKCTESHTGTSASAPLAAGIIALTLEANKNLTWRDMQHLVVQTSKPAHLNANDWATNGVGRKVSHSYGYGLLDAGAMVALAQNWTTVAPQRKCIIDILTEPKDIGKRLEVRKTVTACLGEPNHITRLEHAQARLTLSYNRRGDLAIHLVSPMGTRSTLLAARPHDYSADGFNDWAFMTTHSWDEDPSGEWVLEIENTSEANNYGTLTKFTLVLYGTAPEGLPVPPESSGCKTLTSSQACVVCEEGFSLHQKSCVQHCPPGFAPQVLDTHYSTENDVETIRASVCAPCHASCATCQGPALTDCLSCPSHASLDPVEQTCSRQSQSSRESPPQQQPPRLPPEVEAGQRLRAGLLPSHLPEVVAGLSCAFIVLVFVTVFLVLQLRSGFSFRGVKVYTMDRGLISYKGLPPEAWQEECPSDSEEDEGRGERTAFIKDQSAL

PCSK9-[TM-CT of ACE2]: chimera of full-length human PCSK9 (1-692) fused to the transmembrane and cytosolic domains of ACE2, SEQ ID NO: 27
degradation of LDLR [1]: much more effective than the wild type (WT) PCSK9

PCSK9-ΔN218: C-terminal fragment of the furin/PC5-cleaved PCSK9 (219-692), SEQ ID NO: 32
activity in enhancing the degradation of the LDLR [2]: inactive form of PCSK9

H226A: active site mutant of PCSK9, an inactive enzyme form that remains as zymogen in the ER [reference compound]
activity in enhancing the degradation of the LDLR [2]: inactive

PCSK9-[TM-CT of LDLR]: chimera of full-length human PCSK9 (1-692) indirectly fused to the transmembrane and cytosolic domains of LDLR, SEQ ID NO: 20
degradation of LDLR [1]: much more effective than the wild type (WT) PCSK9

wild type PCSK9: human full-length PCSK9 (1-692), SEQ ID NO: 21
activity in enhancing the degradation of the LDLR [2]: active in enhancing the degradation of the LDLR | degradation of ApoER2 [3]: degraded | degradation of VLDLR [4]: degraded

PCSK9-[TM-CT of Lamp1]: chimera of full-length human PCSK9 (1-692) fused to the transmembrane and cytosolic domains of Lamp1, SEQ ID NO: 24
degradation of LDLR [1]: more powerful chimera to enhance the degradation of the LDLR | level of ApoER2 ([3]; CHOK1, Neuro2A, HuH7 and HEKL293 cells, FIG. 14): significantly decreased the level of ApoER2 in all cells tested | degradation of ApoER2 [3]: highest efficacy of degradation | degradation of VLDLR [4]: highest efficacy of degradation | degradation of LDLR [5]: highest efficacy of degradation

R218S: natural PCSK9 mutant Arg218-to-Ser, hypercholesterolemia-associated, Furin/PC5A-resistant
activity in enhancing the degradation of the LDLR [2]: active in enhancing the degradation of the LDLR | processing by co-expressed Furin [6]: can no longer process

α1-PDX: modified serpin which inhibits most of the basic aa-specific PCs
inhibition of processing of PCSK9 into PCSK9-ΔN218 [7]: completely inhibits such processing into PCSK9-ΔN218

RFHR218↓EA: PCSK9 mutant with motif RFHR218EA (SEQ ID NO: 6)
processing at Arg218 by endogenous Furin [6]: intermediate Furin-cleavability

RRRR^218EL: PCSK9 variant with wild type RFHR218QA replaced by optimal Furin-recognition sequence RRRR218EL (SEQ ID NO: 5)
activity in enhancing the degradation of the LDLR [2]: inactive | processing at Arg218 by endogenous Furin [6]: completely process

F216L: natural PCSK9 mutant Phe216-to-Leu, hypercholesterolemia-associated
processing by co-expressed Furin [6]: cleaves to a lesser extent

RFHR218↓EL: PCSK9 mutant with motif RFHR218EL (SEQ ID NO: 7)
processing at Arg218 by endogenous Furin [6]: intermediate Furin-cleavability

PCSK9-V5: transgenic PCSK9 tagged with V5 at its C-terminus, overexpressed in mouse hepatocytes
circulating LDL-Cholesterol ([8]; transgenic mice overexpressing PCSK9 in hepatocytes): quite elevated | level of VLDLR in skeletal muscle ([8]; transgenic mice versus control littermates, immunofluorescence, FIG. 21): dramatically decreased | decrease of VLDLR level in muscle ([8]; transgenic mice versus non-transgenic control littermates): at least 3 fold

B1: CHRD: truncated PCSK9 construct: signal peptide fused to the Cys/His rich domain (amino acid 455-692) with V5 tag (protein)
chain: LFCRTVWSAHSGPTRMATAVARCAPDEELLSCSSFSRSGKRRGERMEAQGGKLVCRAHNAFGGEGVYAIARCCLLPQANCSVHTAPPAEASMGTRVHCHQQGHVLTGCSSHWEVEDLGTHKPPVLRPRGQPNQCVGHREASIHASCCHAPGLECKVKEHGIPAPQEQVTVACEEGWTLTGCSALPGTSHVLGAYAVDNTCVVRSRDVSTTGSTSEGAVTAVAICCRSRHLAQASQELQ
modifications: left off: small tags and cut ends
notes: truncated PCSK9 construct: signal peptide fused to the Cys/His rich domain (amino acid 455-692) with V5 tag
activity in enhancing the degradation of the LDLR [2]: inactive
